Measured values published in patent publication US10501421B1, “Substituted benzimidazoles as modulators of Ras signaling” (VANDERBILT UNIVERSITY, priority 2017, dated 2019).
Counter-ions that a name gives are not always drawn.

Tests used:
[1] = tested on: H727 lung cancer cell lines (G12V K-Ras mutation); experiment: Inhibition of cancer cell proliferation (CellTiter-Glo); assay type: cell-based; conditions: Homo sapiens, NCI-H727, 72 h; H727 cells, 3 days treatment, CellTiter-Glo; read-out: Cell proliferation activity (H727 cancer cell line proliferation IC50)
Experimental: Compounds of the present invention were measured for their ability to kill H727 lung cancer cell lines, which contain a G12V K-Ras mutation. Cell proliferation experiments were conducted in 96-well plates. Cells were plated at 1000 cells/well, incubated overnight, followed by treatment with a dose range of compound for 3 days at 37° C. Cell proliferation was assessed using a CellTiter-Glo assay (Promega) according to the manufacturer's protocol. Data were normalized to DMSO control. IC50 values were determined using a four-parameter dose-response (variable slope) equation. These assays are performed in a manner analogous to the assay disclosed in: Burns, M. C.; Sun, Q.; Daniels, R. N.; Camper, D. V.; Kennedy, J. P.; Phan, J.; Olejniczak, E. O.; Lee, T.; Waterson, A. G.; Rossanese, O. W.; Fesik, S. W. “Approach for targeting Ras with small molecules that activate SOS-mediated nucleotide exchange” Proc. Natl. Acad. Sci. 2014; 11(9): 3401-3406. PMCID: PMC3948241.

[2] = target: Ras GEF SOS (Son of Sevenless) (Homo sapiens, UniProt Q07889); experiment: SOS-mediated nucleotide exchange on Ras (BODIPY-GDP fluorescence); assay type: biochemical; conditions: SOS-mediated exchange of BODIPY-GDP for GTP on Ras
How it was run: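 Ras loaded with BODIPY-GDP was mixed in buffer with test compound, then GTP and SOS. Fluorescence change from labeled GDP/GTP exchange was followed over time, and rates came from single-exponential fits. EC50 came from a four-parameter fit of mean rate against compound concentration.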

[3] = target: T1, Son of Sevenless (SOS) (Homo sapiens, UniProt Q07889); experiment: Binding to SOS, fluorescence polarization anisotropy (FPA) probe displacement; conditions: displacement of FITC-conjugated probe (Example 285), affinity calculated from IC50
T1 sequence (Q07889 564-1049 limits assumed): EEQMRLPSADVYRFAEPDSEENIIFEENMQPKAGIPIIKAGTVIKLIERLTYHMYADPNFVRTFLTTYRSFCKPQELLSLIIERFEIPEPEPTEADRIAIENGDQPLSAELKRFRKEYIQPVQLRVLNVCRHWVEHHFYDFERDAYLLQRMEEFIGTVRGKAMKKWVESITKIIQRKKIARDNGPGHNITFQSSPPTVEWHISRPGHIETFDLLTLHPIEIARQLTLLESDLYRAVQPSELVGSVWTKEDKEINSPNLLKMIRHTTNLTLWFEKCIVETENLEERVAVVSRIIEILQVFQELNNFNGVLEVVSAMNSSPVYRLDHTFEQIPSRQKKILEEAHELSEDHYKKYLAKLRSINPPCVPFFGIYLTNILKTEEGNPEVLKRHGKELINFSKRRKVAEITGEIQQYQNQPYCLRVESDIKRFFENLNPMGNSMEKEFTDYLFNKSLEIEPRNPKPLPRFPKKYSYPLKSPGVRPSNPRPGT
How it was run: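 A FITC-conjugated probe compound was incubated with SOS in buffer, and its displacement was tracked as a change in fluorescence anisotropy across a test-compound dose range. IC50 came from a four-parameter variable-slope fit, and binding affinity was calculated from it.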

Sequence of Ras GEF SOS (Son of Sevenless) (P01112 1-166 partner limits assumed, one chain of several): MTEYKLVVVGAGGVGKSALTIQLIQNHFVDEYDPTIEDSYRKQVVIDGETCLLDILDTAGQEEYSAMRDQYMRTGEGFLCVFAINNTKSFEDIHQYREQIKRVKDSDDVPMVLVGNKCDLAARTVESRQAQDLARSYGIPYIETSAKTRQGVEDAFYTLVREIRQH

Row | SMILES | IC50 [1] [µM] | EC50 [2] [µM] | Ki [3] [µM]
1 | CC(C)c1ccccc1-c1cccc2c1nc(N1CCNCC1)n2Cc1ccc(C(F)(F)F)cc1 [Example 95, 4-(2-isopropylphenyl)-2-(piperazin-1-yl)-1-(4-(trifluoromethyl)benzyl)-1H-benzo[d]imidazole] | < 1 | 1 to 5 | 
2 | Fc1ccc(Cn2c(N3CCNCC3)nc3c(-c4ccc(C(F)(F)F)cc4)cccc32)cc1Cl [Example 87, 1-(3-chloro-4-fluorobenzyl)-2-(piperazin-1-yl)-4-(4-(trifluoromethyl)phenyl)-1H-benzo[d]imidazole] | 5 to 20 | 5 to 30 | 
3 | Cc1cc2nc(N3CCNCC3)n(Cc3cc(C)c(F)c(C)c3)c2cc1C [Example 41, 1-(4-fluoro-3,5-dimethylbenzyl)-5,6-dimethyl-2-(piperazin-1-yl)-1H-benzo[d]imidazole trifluoroacetate] |  | 1 to 5 | > 5
4 | Cc1cc2c(nc(N3CCNCC3)n2Cc2ccc(F)c(Cl)c2)c(-c2cccnc2)c1C [Example 265, 1-[(3-chloro-4-fluorophenyl)methyl]-5,6-dimethyl-2-piperazin-1-yl-4-pyridin-3-ylbenzimidazole] |  | 1 to 5 | 1 to 5
5 | Cc1ccc2nc([C@@H]3CCC(=O)N3)n(Cc3ccc(F)c(Cl)c3)c2c1 [Example 274, (5S)-5-[1-[(3-chloro-4-fluorophenyl)methyl]-6-methylbenzimidazol-2-yl]pyrrolidin-2-one] |  | 1 to 5 | > 5
6 | Cc1cc2c(nc(N3CCNCC3)n2Cc2ccc(Cl)cc2)c(-c2ccccc2)c1C [Example 105, 1-(4-chlorobenzyl)-5,6-dimethyl-4-phenyl-2-(piperazin-1-yl)-1H-benzo[d]imidazole trifluoroacetate] |  | 1 to 5 | > 5
7 | Cc1cc2nc(NCCO)n(Cc3ccc(F)c(Cl)c3)c2cc1C [Example 26, 2-((1-(3-chloro-4-fluorobenzyl)-5,6-dimethyl-1H-benzo[d]imidazol-2-yl)amino)ethan-1-ol] |  | 5 to 30 | > 5
8 | Cc1cc2c(nc(N3CCNCC3)n2Cc2ccc(F)c(C)c2)c(CNC2CCCC2)n1 [Example 232, N-((1-(4-fluoro-3-methylbenzyl)-6-methyl-2-(piperazin-1-yl)-1H-imidazo[4,5-c]pyridin-4-yl)methyl)cyclopentanamine] |  | 5 to 30 | > 5
9 | Fc1ccc(Cn2c(N3CCNCC3)nc3ccc(C4CC4)cc32)cc1Cl [Example 62, 1-(3-chloro-4-fluorobenzyl)-6-cyclopropyl-2-(piperazin-1-yl)-1H-benzo[d]imidazole trifluoroacetate] |  | 5 to 30 | > 5
10 | Cc1cc(N2CCN(C)CC2)c2nc(N3CCNCC3)n(Cc3cc(C)c(F)c(C)c3)c2c1 [Example 322, 1-(4-fluoro-3,5-dimethylbenzyl)-6-methyl-4-(4-methylpiperazin-1-yl)-2-(piperazin-1-yl)-1H-benzo[d]imidazole] |  | < 1 | < 0.5
11 | Cc1ccccc1-c1c(C)c(C)cc2c1nc(NCCN)n2Cc1cccc(C#N)c1 [Example 116, 3-((2-((2-aminoethyl)amino)-5,6-dimethyl-4-(o-tolyl)-1H-benzo[d]imidazol-1-yl)methyl)benzonitrile trifluoroacetate] |  | 1 to 5 | 1 to 5
12 | Cc1cc2c(nc(N3CCNCC3)n2Cc2ccc(F)c(C)c2)c(Cl)n1 [Example 218, 4-chloro-1-(4-fluoro-3-methylbenzyl)-6-methyl-2-(piperazin-1-yl)-1H-imidazo[4,5-c]pyridine] |  | 5 to 30 | > 5
13 | Cc1cc2nc(NCCN)n(Cc3ccc(F)c(Cl)c3)c2cc1C [Example 17, N1-(1-(3-chloro-4-fluorobenzyl)-5,6-dimethyl-1H-benzo[d]imidazol-2-yl)ethane-1,2-diamine trifluoroacetate] |  | 1 to 5 | 1 to 5
14 | N[C@H](c1cc(Cl)cc2c1nc(N1CCNCC1)n2Cc1ccc(F)c(Cl)c1)C1CC1 [Example 167, (S)-(6-chloro-1-(3-chloro-4-fluorobenzyl)-2-(piperazin-1-yl)-1H-benzo[d]imidazol-4-yl)(cyclopropyl)methanamine trifluoroacetate] |  | < 1 | 0.5 to 1
15 | Cc1cc(OC2CCNC2)c2nc(N3CCNCC3)n(Cc3cc(C)c(F)c(C)c3)c2c1 (stereo not drawn) [Example 327, 1-(4-fluoro-3,5-dimethylbenzyl)-6-methyl-2-(piperazin-1-yl)-4-(pyrrolidin-3-yloxy)-1H-benzo[d]imidazole] |  | < 1 | 0.5 to 1
16 | Cc1cc2nc(NCCN3CCOCC3)n(Cc3cc(F)cc(F)c3)c2cc1C [Example 31, 1-(3,5-difluorobenzyl)-5,6-dimethyl-N-(2-morpholinoethyl)-1H-benzo[d]imidazol-2-amine trifluoroacetate] |  | 5 to 30 | > 5
17 | Cc1cc(OCC2CCNCC2)c2nc(NCCN)n(Cc3cc(C)c(F)c(C)c3)c2c1 [Example 330, N^1-(1-(4-fluoro-3,5-dimethylbenzyl)-6-methyl-4-(piperidin-4-ylmethoxy)-1H-benzo[d]imidazol-2-yl)ethane-1,2-diamine] |  | < 1 | 0.5 to 1
18 | Fc1ccc(Cn2c(N3CCNCC3)nc3ccccc32)cc1Cl [Example 7, 1-(3-chloro-4-fluorobenzyl)-2-(piperazin-1-yl)-1H-benzo[d]imidazole trifluoroacetate] |  | 5 to 30 | > 5
19 | Cc1cc2c(nc(N3CCNCC3)n2Cc2ccc(F)c(C)c2)c(-c2ccccc2C)n1 [Example 225, 1-(4-fluoro-3-methylbenzyl)-6-methyl-2-(piperazin-1-yl)-4-(o-tolyl)-1H-imidazo[4,5-c]pyridine] |  | 5 to 30 | > 5
20 | CNCCN(C)c1cc(C)cc2c1nc(N1CCNCC1)n2Cc1cc(C)c(F)c(C)c1 [Example 192, N^1-(1-(4-fluoro-3,5-dimethylbenzyl)-6-methyl-2-(piperazin-1-yl)-1H-benzo[d]imidazol-4-yl)-N^1,N^2-dimethylethane-1,2-diamine trifluoroacetate] |  | 1 to 5 | 0.5 to 1
21 | Cc1cc(OC2CCNCC2)c2nc(N3CCNCC3)n(Cc3cc(C)c(F)c(C)c3)c2c1 [Example 315, 1-(4-fluoro-3,5-dimethylbenzyl)-6-methyl-2-(piperazin-1-yl)-4-(piperidin-4-yloxy)-1H-benzo[d]imidazole] |  | < 1 | 1 to 5
22 | Cc1cc(Cn2c(N3CCNCC3)nc3c(C(N)C(=O)O)cc(Cl)cc32)cc(C)c1F (stereo not drawn) [Example 282, 2-amino-2-[6-chloro-1-[(4-fluoro-3,5-dimethylphenyl)methyl]-2-piperazin-1-ylbenzimidazol-4-yl]acetic acid] |  | 1 to 5 | 0.5 to 1
23 | Cc1cc(-c2c(C)c(C)cc3c2nc(N2CCNCC2)n3Cc2ccc(F)c(Cl)c2)n(C)n1 [Example 286, 1-(3-chloro-4-fluorobenzyl)-4-(1,3-dimethyl-1H-pyrazol-5-yl)-5,6-dimethyl-2-(piperazin-1-yl)-1H-benzo[d]imidazole] | 1 to 5 |  | 
24 | Cc1cc(Cn2c(NCC3CNC3)nc3c(-c4ccccc4Cl)cc(Cl)cc32)cc(C)c1F [Example 305, N-(azetidin-3-ylmethyl)-6-chloro-4-(2-chlorophenyl)-1-(4-fluoro-3,5-dimethylbenzyl)-1H-benzo[d]imidazol-2-amine] |  | < 1 | < 0.5
25 | Cc1cc(Cn2c(N3CCNCC3)nc3c(OC4CCNC4)cccc32)ccc1F (stereo not drawn) [Example 206, 1-(4-fluoro-3-methylbenzyl)-2-(piperazin-1-yl)-4-(pyrrolidin-3-yloxy)-1H-benzo[d]imidazole] |  | < 1 | > 5
26 | Cc1cc(Cn2c(NCCN)nc3c(-c4ccccc4Cl)cc(Cl)cc32)cc(C)c1F [Example 306, N^1-(6-chloro-4-(2-chlorophenyl)-1-(4-fluoro-3,5-dimethylbenzyl)-1H-benzo[d]imidazol-2-yl)ethane-1,2-diamine] |  | 1 to 5 | < 0.5
